Results on 24 compounds are retold here after patent publication US20100056791A1, “Pyrazolopyridine carboxamide derivative and phosphodiesterase (pde) inhibitor containing the same” (priority 2006, published 2010).

Assay [1] addresses T1, PDE4B catalytic domain (PDE4Bcat) (Homo sapiens, UniProt Q07343).
T1 construct: The cDNA of PDE4B catalytic domain (hereinafter abbreviated as Cat) was isolated from human RNA by RT-PCR; made in house; host or cells: Sf9 insect cells (baculovirus, Gateway / Bac-to-Bac)
Description: Phosphodiesterase inhibitory activity ([3H]cAMP breakdown, recombinant PDE4Bcat). Conditions: 30° C. 20 minutes, read-out: IC50(μmol/L) PDE4. Format: biochemical. The text has this: The cDNA of PDE4B catalytic domain (hereinafter abbreviated as Cat) was isolated from human RNA by RT-PCR. The isolated cDNA fragments were inserted into Sf9 insect cells using Gateway system (product of Invitrogen Corporation) and Bac-to-Bac (registered trademark) Baculovirus Expression system (product of Invitrogen Corporation) to express a target PDE protein. The recombinant PDE4Bcat was purified from the culture supernatants or cell extracts of Sf9 cells expressing high levels of the PDE protein by ion exchange chromatography and was used for the following experiments.
A 4 mmol/L solution of each test compound was serially diluted four-fold with a 15% DMSO solution to prepare solutions with concentrations of 15 nmol/L to 4 mmol/L (the final concentrations used in the experiments were 1.5 nmol/L to 400 μmol/L). 10 μL of the prepared test compound solutions, [3H] cAMP diluted with a buffer solution (40 mmol/L Tris-HCl (pH: 7.4), 10 mmol/L MgCl2), and 40 μL of the recombinant human PDE protein (2×10^−6 units, 1 unit is defined as the amount of PDE that breaks down 1 μmol/L of cAMP in one minute under the conditions of a pH of 7.5 and 30° C.) were added to a 96-well plate. The mixtures were reacted at 30° C. for 20 minutes. Then, the resultant mixtures were reacted at 65° C. for 2 minutes. Subsequently, 25 μL of 1 mg/mL5′-nucleotidase (Crotalus atrox venom, product of Sigma) was added to the mixtures, and the mixtures were reacted at 30° C. for 10 minutes. After completion of the reaction, 200 μL of a solution of Dowex (300 mg/mL Dowex 1×8-400 (product of Sigma Aldrich), 33% ethanol) was added to the mixtures, and the mixtures were shaken at 4° C. for 20 minutes. Subsequently, 200 μL of MicroScint 20 (product of Packard) was added to the mixtures, and measurement was performed using a scintillation counter (Topcount, product of Packard). IC50 values were calculated using Graph Pad Prism v3.03 (product of GraphPad Software). When […], the results were represented by “+.” When 0.1 μmol/L>the IC50 value, the results were represented by “++.”

The subject of assay [2] is histamine-induced bronchoconstriction. Description: Histamine-induced airway contraction reaction in guinea pigs. Format: in vivo. Conditions: Cavia porcellus, iv, 0.5 min, i.v., 30 seconds after administration, read-out: Inhibition ratio; for inhibition in vivo at 0.3 mg/kg: 0.3 mg/kg administration (results in brackets); for inhibition in vivo at 0.1 mg/kg: 0.1 mg/kg administration (not in brackets). The method, then: Guinea pigs were anesthetized with pentobarbital (30 mg/kg, i.p.). A cannula for intravenous administration, a cannula for collecting blood and measuring blood pressure, and a tracheal cannula were inserted into the left external jugular vein, right internal carotid artery, and trachea, respectively. The guinea pigs were maintained on artificial respiration under the conditions of 60 times/min and 10 mL/kg/stroke. The airflow from the side branch of the tracheal cannula was measured by a bronchospasm transducer (Ugo-Basile) and recorded on a computer via Power Lab (ADInstruments Japan). The guinea pigs were immobilized with gallamine (10 mg/kg, i.v.), and histamine was administered at 10-minute intervals (12.5 μg/kg, i.v.). […] We examined the inhibitory action of test compounds on histamine-induced bronchoconstriction 30 seconds after compounds administration. Bronchoconstriction was recorded as the amount of airflow, and the results were represented by the ratio of the maximum value of the histamine-induced airflow 30 seconds after the administration to the maximum value of the airflow before the administration. When the inhibition ratio≧90%, the results were represented by “+++.” When 90%>the inhibition ratio≧70%, the results were represented by “++.” When 70%>the inhibition ratio≧30%, the results were represented by “+.” The results shown in brackets are for 0.3 mg/kg administration, and the other results are for 0.1 mg/kg administration.

Molecules are shown by their SMILES.

T1 sequence (Q07343 330-659 limits assumed): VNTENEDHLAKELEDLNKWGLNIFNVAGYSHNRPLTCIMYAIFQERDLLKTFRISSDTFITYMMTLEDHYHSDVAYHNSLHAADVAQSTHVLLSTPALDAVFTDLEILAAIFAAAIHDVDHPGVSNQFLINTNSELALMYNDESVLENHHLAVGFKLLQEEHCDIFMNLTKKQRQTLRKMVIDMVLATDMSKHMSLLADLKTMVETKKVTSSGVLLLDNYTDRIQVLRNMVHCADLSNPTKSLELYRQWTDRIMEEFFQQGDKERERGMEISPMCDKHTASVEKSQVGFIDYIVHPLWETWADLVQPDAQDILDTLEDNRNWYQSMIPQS

As to `CCc1cc2c(C(=O)Nc3c(Cl)c[n+]([O-])cc3Cl)ccc(OC)n2n1` [Example 11, 2-Ethyl-7-methoxypyrazolo[1,5-a]pyridine-4-carboxylic acid (3,5-dichloto-1-oxypyridin-4-yl)amide], in assay [1], the IC50 was less than 0.1 µmol/L. In addition, the inhibition in vivo at 0.3 mg/kg in assay [2] fell in the range of 70 to 90%. `COc1ccc(C(=O)Nc2c(Cl)c[n+]([O-])cc2Cl)c2cc(C(F)(F)F)nn12` [Example 17, 7-Methoxy-2-trifluoromethylpyrazolo[1,5-a]pyridine-4-carboxylic acid (3,5-dichloro-1-oxypyridin-4-yl)amide]: the IC50 in assay [1] is less than 0.1 µmol/L. Moreover, the inhibition in vivo at 0.1 mg/kg in assay [2] fell in the range of 30 to 70%.

As for `COc1ccc(C(=O)Nc2c(Cl)cc(Cl)cc2Cl)c2cc(C(F)(F)F)nn12` [Example 18, 7-Methoxy-2-trifluoromethylpyrazolo[1,5-a]pyridine-4-carboxylic acid (2,4,6-trichlorophenyl)amide], the IC50 in assay [1] is 0.1 to 10 µmol/L.

For `COc1ccc(C(=O)Nc2c(Cl)cncc2Cl)c2cc(C3CC3)nn12` [Example 24, 2-Cyclopropyl-7-methoxypyrazolo[1,5-a]pyridine-4-carboxylic acid (3,5-dichloropyridin-4-yl)amide], the IC50 in assay [1] was less than 0.1 µmol/L. Moreover, in assay [2], the inhibition in vivo at 0.1 mg/kg was no less than 90%. For the compound `COc1ccc(C(=O)Nc2c(Cl)c[n+](O)cc2Cl)c2cc(C3CC3)nn12` [Example 25, 2-Cyclopropyl-7-methoxypyrazolo[1,5-a]pyridine-4-carboxylic acid (3,5-dichloro-1-oxypyridin-4-yl)amide], the IC50 in assay [1] was less than 0.1 µmol/L. Also, in assay [2], the inhibition in vivo at 0.3 mg/kg was no less than 90%. Turning to `COc1ccc(C(=O)Nc2c(Cl)cncc2Cl)c2cc(C(C)C)nn12` [Example 32, 2-Isopropyl-7-methoxypyrazolo[1,5-a]pyridine-4-carboxylic acid (3,5-dichloropyridin-4-yl)amide], in assay [1], the IC50 lay in the range of 0.1 to 10 µmol/L. For the same compound, in assay [2], the inhibition in vivo at 0.1 mg/kg lay within 70 to 90%. With `COc1ccc(C(=O)Nc2c(Cl)c[n+](O)cc2Cl)c2cc(C(C)C)nn12` [Example 33, 2-Isopropyl-7-methoxypyrazolo[1,5-a]pyridine-4-carboxylic acid (3,5-dichloro-1-oxypyridin-4-yl)amide], the IC50 in assay [1] is less than 0.1 µmol/L. Further, the inhibition in vivo at 0.1 mg/kg in assay [2] is no less than 90%.

Take `COc1ccc(C(=O)Nc2c(Cl)cncc2Cl)c2ccnn12` [Example 40, 7-Methoxypyrazolo[1,5-a]pyridine-4-carboxylic acid (3,5-dichloropyridin-4-yl)amide]: the IC50 in assay [1] is less than 0.1 µmol/L. Further, in assay [2], the inhibition in vivo at 0.3 mg/kg lay in the range of 70 to 90%. For `COc1ccc(C(=O)Nc2c(Cl)c[n+]([O-])cc2Cl)c2ccnn12` [Example 41, 7-Methoxypyrazolo[1,5-a]pyridine-4-carboxylic acid (3,5-dichloro-1-oxypyridin-4-yl)amide], the IC50 in assay [1] was less than 0.1 µmol/L. The inhibition in vivo at 0.3 mg/kg in assay [2] fell in the range of 30 to 70%. As for `CCc1cc2c(C(=O)Nc3c(Cl)cncc3Cl)cccn2n1` [Example 48, 2-Ethylpyrazolo[1,5-a]pyridine-4-carboxylic acid (3,5-dichloropyridin-4-yl)amide], in assay [1], the IC50 lay within 0.1 to 10 µmol/L. `COc1ccc(C(=O)Nc2c(Cl)cncc2Cl)c2cc(C(F)F)nn12` [Example 58, 2-Difluoromethyl-7-methoxy-pyrazolo[1,5-a]pyridine-4-carboxylic acid (3,5-dichloropyridin-4-yl)amide]: the IC50 in assay [1] was less than 0.1 µmol/L. The inhibition in vivo at 0.1 mg/kg in assay [2] was no less than 90%. `CCOc1ccc(C(=O)Nc2c(Cl)cncc2Cl)c2cc(C(F)F)nn12` [Example 59, 2-Difluoromethyl-7-ethoxypyrazolo[1,5-a]pyridine-4-carboxylic acid (3,5-dichloropyridin-4-yl)amide]: the IC50 in assay [1] was less than 0.1 µmol/L.

With `COc1ccc(C(=O)Nc2c(Cl)c[n+](O)cc2Cl)c2cc(C#N)nn12` [Example 71, 2-Cyano-7-methoxypyrazolo[1,5-a]pyridine-4-carboxylic acid (3,5-dichloro-1-oxypyridin-4-yl)amide], the IC50 in assay [1] is less than 0.1 µmol/L.

With `COCc1cc2c(C(=O)Nc3c(Cl)cncc3Cl)ccc(OC)n2n1` [Example 76, 7-Methoxy-2-methoxymethylpyrazolo[1,5-a]pyridine-4-carboxylic acid (3,5-dichloropyridin-4-yl)amide], in assay [1], the IC50 was less than 0.1 µmol/L. In addition, the inhibition in vivo at 0.1 mg/kg in assay [2] fell in the range of 70 to 90%. Regarding `COCc1cc2c(C(=O)Nc3c(Cl)c[n+](O)cc3Cl)ccc(OC)n2n1` [Example 77, 7-Methoxy-2-methoxymethylpyrazolo[1,5-a]pyridine-4-carboxylic acid (3,5-dichloro-1-oxypyridin-4-yl)amide], in assay [1], the IC50 was less than 0.1 µmol/L. Moreover, in assay [2], the inhibition in vivo at 0.3 mg/kg was in the range of 30 to 70%.

Consider `COc1ccc(C(=O)Nc2c(Cl)cncc2Cl)c2cc(C=O)nn12` [Example 78, 2-Formyl-7-methoxypyrazolo[1,5-a]pyridine-4-carboxylic acid (3,5-dichloropyridin-4-yl)amide], for which, in assay [1], the IC50 is less than 0.1 µmol/L. Also, in assay [2], the inhibition in vivo at 0.3 mg/kg was 70 to 90%. In the case of `COc1ccc(C(=O)Nc2c(Cl)cncc2Cl)c2cc(C(C)O)nn12` (centres unmarked) [Example 79, 2-(1-Hydroxyethyl)-7-methoxypyrazolo[1,5-a]pyridine-4-carboxyl ic acid (3,5-dichloropyridin-4-yl)amide], the IC50 in assay [1] is less than 0.1 µmol/L. Besides, in assay [2], the inhibition in vivo at 0.1 mg/kg is 30 to 70%. Turning to `COc1ccc(C(=O)Nc2c(Cl)cncc2Cl)c2cc(C(C)=O)nn12` [Example 80, 2-Acetyl-7-methoxypyrazolo[1,5-a]pyridine-4-carboxylic acid (3,5-dichloropyridin-4-yl)amide], in assay [1], the IC50 is less than 0.1 µmol/L. Also, the inhibition in vivo at 0.1 mg/kg in assay [2] fell in the range of 30 to 70%. For the compound `COc1ccc(C(=O)Nc2c(Cl)cncc2Cl)c2cc(C(=O)O)nn12` [Example 81, 4-(3,5-Dichloropyridin-4-ylcarbamoyl)-7-methoxypyrazolo[1,5-a]pyridine-2-carboxylic acid], the IC50 in assay [1] was in the range of 0.1 to 10 µmol/L. On the same count and under the same terms, under `CNc1ccc(C(=O)Nc2c(Cl)cncc2Cl)c2cc(C(F)(F)F)nn12` [Example 97, 7-Methylamino-2-trifluoromethylpyrazolo[1,5-a]pyridine-4-carboxylic acid (3,5-dichloropyridin-4-yl)amide] stands less than 0.1 µmol/L; under `CC(=O)c1ccc(C(=O)Nc2c(Cl)cncc2Cl)c2cc(C(F)(F)F)nn12` [Example 108, 7-Acetyl-2-trifluoromethylpyrazolo[1,5-a]pyridine-4-carboxylic acid (3,5-dichloropyridin-4-yl)amide], less than 0.1 µmol/L. On to `COCc1ccc(C(=O)Nc2c(Cl)cncc2Cl)c2cc(C(F)(F)F)nn12` [Example 115, 7-Methoxymethyl-2-trifluoromethylpyrazolo[1,5-a]pyridine-4-carboxylic acid (3,5-dichloropyridin-4-yl)amide], for which the IC50 in assay [1] is less than 0.1 µmol/L. Take `COc1ccc(C(=O)Nc2c(Cl)cncc2Cl)c2c(Cl)c(C(F)(F)F)nn12` [Example 118, 3-Chloro-7-methoxy-2-trifluoromethylpyrazolo[1,5-a]pyridine-4-carboxylic acid (3,5-dichloropyridin-4-yl)amide]: in assay [1], the IC50 is less than 0.1 µmol/L. The same measure, in the same setting: with `COc1ccc(C(=O)Nc2c(Cl)cncc2Cl)c2c(O)c(C(F)(F)F)nn12` [Example 119, 3-Hydroxy-7-methoxy-2-trifluoromethylpyrazolo[1,5-a]pyridine-4-carboxylic acid (3,5-dichloropyridin-4-yl)amide] the figure was 0.1 to 10 µmol/L.
